Experimental data as given in patent US20230277483A1, “COMPOSITIONS AND METHODS TO TREAT INFLAMMATION” (University of Iowa Research Foundation, priority 2022, published 2023).

Experiments:
Human MDM = experiment: Anti-inflammatory miR expression after Pg-LPS challenge; type: cell-based
Protocol: FIGS. 11A-11B. Sg metabolites upregulate anti-inflammatory miRs in human macrophages and HGF. A-B: Relative transcript changes of miR-200c, 146a, and 21 in HGF (A) and human MDM (B) treated with AICAR, MA, HCA, and HPLA 24 hours after Pg-LPS challenge; performed in duplicate.
Human MDM was cultured in a 24-well plate and treated with HCA at different concentrations and Pg-LPS at 100 ng/mi for 24 hrs. […] (All data are presented as means±SEM. *: p<0.05 vs untreated, ANOVA).

[1] = test system: DIO-mice (C57BL/6J on 60% kCal high-fat diet); experiment: Diet-induced obesity (DIO) mouse model, IP HCA; type: in vivo
Protocol: Animal care and experimental procedures were performed with approval from the University of Iowa's Institutional Animal Care and Use Committee. Animals received humane care in compliance with the Guide for the Care and Use of Laboratory Animals (National Academies Press, 2011) and with the Principles of Laboratory Animal Care formulated by the National Society for Medical Research. C57BL/6J mice (The Jackson Laboratory, 000664) were kept on a 12-hour light/dark cycle. Mice used to generate the DIO model were placed on a 60% kCal high-fat diet (HFD, Research Diets, D12492) immediately after weaning (i.e., at 3 weeks of age). After 16 weeks, lean and DIO-mice were intraperitoneally (IP) injected with 0.5 uM HCA or PBS control every other day for three weeks. Body weight was measured weekly. All tissues were harvested, frozen in liquid nitrogen, and kept at −80° C. until processed.
Total RNA was isolated using TRIzol reagent (Invitrogen, 15-596-018) and reverse transcribed into cDNA using the iScript cDNA synthesis kit (Bio-Rad, 1708890). Quantitative real-time RT-PCR analysis was performed using SYBR Green (Invitrogen, KCQS00).
Proteins were extracted from cells or tissues and subjected to SDS-polyacrylamide gel electrophoresis, as previously described (Yang et al., 2015). Membranes were incubated with anti-p-AKT (Ser473, Cell Signaling, 9271); anti-AKT1 (H-136, Santa Cruz, sc-8312) or anti-ACTB (H-300, Santa Cruz, sc-10731) at 1:1000 and then incubated with the appropriate secondary antibody conjugated with horseradish peroxidase (1:5000, Santa Cruz, sc-2005 or 1:5000, Cell Signaling Technology, 7074S). Signal was detected using the ChemiDoc Touch Imaging System (Bio-Rad), and densitometric analyses of western blot images were performed using Image Lab software (Bio-Rad).
For immunohistochemistry, tissues were fixed with 4% PFA and sectioned at 5 μm thick, followed by deparaffinization and rehydration processes. Tissue sections were stained using H&E. The images were observed under a Nikon microscope (10×).
Blood samples were centrifuged (4° C., 5000 g, 30 min) to obtain serum. Ten microliters of serum per sample were required for each index analysis. Serum alanine aminotransferase (ALT) and aspartate aminotransferase (AST) were measured by commercial kits. Serum IL-1β, IL-6 and free fatty acid (FFA) content were measured by ELISA (Il-1beta, Biolegend, Cat No. 432604; Il6) or a FFA fluorometric kit (Cayman Chemical, No. 700310), respectively, and then normalized to total protein (BCA).
Whole-body energy expenditure and body composition: Respiratory exchange ratio (RER) and locomotor activity were monitored using a Comprehensive Lab Animal Monitoring System (CLAMS, Columbus Instruments) at the Fraternal Order of Eagles Metabolic Phenotypic Core. Body composition was measured by using Bruker Minispecs (LF50).
Animals were fasted for 6 hours prior to ITT. Insulin tolerance was tested by measuring glucose concentration at different time points after intraperitoneal (IP) insulin injection (0.5 U/kg body weight; Humulin R) (Qian et al., 2018).

O=C(O)CCCCCO [HCA, 6-hydroxycaproic acid]
anti-inflammatory miRs (miR-200c, 146a, and 21) (Human MDM; 24 hours after Pg-LPS challenge): upregulate | miR-200c expression (Human MDM; HCA at 10 μM, Pg-LPS at 100 ng/ml for 24 hrs): significantly upregulated | liver expression of Atg1 and Cd36 ([1]; HCA vs HFD alone): increased expression | liver expression of Hsl ([1]; HCA vs HFD alone): significantly reduced | Serum free fatty acid (FFA) content ([1]; HCA vs HFD controls): reduced circulating levels | fasting glucose ([1]; HFD-fed, HCA-treated): HFD-mediated effects were reduced | pAKT in eWAT (insulin signaling) ([1]; HFD-fed, HCA-treated): increased pAKT | insulin tolerance (ITT) ([1]; HFD-fed, HCA-treated, insulin 0.5 U/kg IP): HFD-mediated effects were reduced | lean mass ([1]; HFD, 0.5 uM HCA IP every other day for three weeks): increased | BW gain ([1]; HFD, 0.5 uM HCA IP every other day for three weeks, vs HFD group): significantly reduced | eWAT RNA-seq: chemokine signaling and leukocyte migration ([1]; HFD, HCA): downregulated | eWAT RNA-seq: fatty acid metabolism, oxidation and absorption, PPAR gamma and AMPK signaling ([1]; HFD, HCA): significantly increased | liver Il1b transcript levels ([1]; HFD, HCA): significantly reduced | serum IL-6, IL-1β, and leptin ([1]; HFD, HCA): reduced | eWAT Adipoq and Ppargamma levels ([1]; HFD, HCA-treated): levels increased | eWAT mRNA expression of Il6, Nos2 and Lep ([1]; HFD, HCA-treated): significantly reduced | serum ALT levels ([1]; HFD, HCA-treated): reduced | morphology of liver, iWAT and eWAT (H&E) ([1]; HFD, HCA-treated vs HFD alone): showed improvement | activity (locomotor) ([1]; HFD, HCA-treated, CLAMS): increased activity | respiratory exchange ratio (RER) ([1]; HFD, HCA-treated, CLAMS): shift in respiratory exchange ratio (RER) towards increased carbohydrate metabolism | eWAT Cd36 and Gpr81 ([1]; compared to HFD controls): induced | GPR137B, GPR176, GPR65, GPR85, and FABP7 in WAT (mRNA-seq) ([1]; obese mice treated with HCA): upregulation | PPARγ in white adipose tissues (WAT) ([1]; obese mice, systemic administration of HCA): upregulation
